This passage reports IC50 results from patent US10280150B2 (FORMA TM2, Inc., priority 2014, dated 2019).

Bounds are passed on as bounds.

Sequence of IDH1-R132H recombinant protein (O75874 whole entry R132H): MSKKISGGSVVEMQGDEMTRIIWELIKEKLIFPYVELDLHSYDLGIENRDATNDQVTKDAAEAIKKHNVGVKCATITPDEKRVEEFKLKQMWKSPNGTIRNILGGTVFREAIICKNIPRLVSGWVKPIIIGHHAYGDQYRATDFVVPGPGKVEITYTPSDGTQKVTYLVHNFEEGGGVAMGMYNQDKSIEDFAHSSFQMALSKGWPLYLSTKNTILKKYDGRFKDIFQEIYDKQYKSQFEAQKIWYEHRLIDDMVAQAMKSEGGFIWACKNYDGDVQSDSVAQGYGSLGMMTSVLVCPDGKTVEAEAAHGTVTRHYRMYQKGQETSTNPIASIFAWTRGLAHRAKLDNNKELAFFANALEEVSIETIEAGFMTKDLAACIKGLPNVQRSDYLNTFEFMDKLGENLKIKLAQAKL

The assay concerns the target IDH1-R132H recombinant protein (Homo sapiens (Human), UniProt O75874, R132H). In words: IDH1-R132H enzymatic assay (inhibition of NADPH consumption, diaphorase/resazurin readout). The class given is biochemical. The following applies: read-out: Enzyme IDH1 R132H IC50 (Range). As to the method: Assays were performed in a 384-well black plate. An aliquot of 250 nL of compound was incubated with 10 μL of 30 nM IDH1-R132H or 10 nM IDH1-R132C recombinant protein in assay buffer (50 mM Tris pH=7.5, 150 mM NaCl, 5 mM MgCl2, 0.1% (w/v) Bovine Serum Albumin, and 0.01% Triton X-100) in each well at 25° C. for 15 minutes. After the plate was centrifuged briefly, an aliquot of 10 μL of 2 mM α-ketoglutarate and 20 μM NADPH solution prepared in assay buffer was then added to each well and the reaction was maintained at 25° C. for 45 minutes. An aliquot of 10 μL of diaphorase solution (0.15 U/mL diaphorase and 30 µM Resazurin in assay buffer) was added to each well. The plate was maintained at 25° C. for 15 minutes and then read on a plate reader with excitation and emission wavelengths at 535 nm and 590 nm, respectively. The IC50 of a given compound was calculated by fitting the dose response curve of inhibition of NADPH consumption at a given concentration with the four parameter logistic equation.
For `C[C@H](Nc1nccc(NS(C)(=O)=O)n1)c1cc2cc(Cl)ccc2[nH]c1=O` [Compound I-17], the IC50 was greater than 10000 nM.

Turning to `Cc1n[nH]c(C)c1-c1ccnc(N[C@@H](C)c2cc3cc(Cl)ccc3[nH]c2=O)n1` [Compound I-82], the IC50 was 1000 to 10000 nM.

In the case of `CC(C)[C@H]1COC(=O)N1c1ccnc(N[C@H](C)c2cc3cc(Cl)ccc3[nH]c2=O)n1` [Compound I-43, (S)-3-(2-(((R)-1-(6-Chloro-2-oxo-1,2-dihydroquinolin-3-yl)ethyl)amino)pyrimidin-4-yl)-4-isopropyloxazolidin-2-one], the IC50 is greater than 10000 nM.

As to `Cc1noc(C)c1-c1ccnc(N[C@@H](C)c2cc3cc(Cl)ccc3[nH]c2=O)n1` [Compound I-69], the IC50 was 1000 to 10000 nM.

In the case of `C[C@H](Nc1nccc(CN2CCCS2(=O)=O)n1)c1cc2cc(Cl)ccc2[nH]c1=O` [Compound I-119, (S)-6-chloro-3-(1-((4-((1,1-dioxidoisothiazolidin-2-yl)methyl)pyrimidin-2-yl)amino)ethyl) quinolin-2(1H)-one], the IC50 was 100 to 1000 nM.

Turning to `CC(C)CS(=O)(=O)c1ccnc(N[C@@H](C)c2cc3cc(Cl)ccc3[nH]c2=O)n1` [Compound I-108], the IC50 was in the range of 100 to 1000 nM.

Take `C[C@H](Nc1nccc(S(C)(=O)=O)n1)c1cc2cc(Cl)ccc2[nH]c1=O` [Compound I-105, (S)-6-Chloro-3-(1-((4-(methylsulfonyl)pyrimidin-2-yl)amino)ethyl)quinolin-2(1H)-one]: the IC50 was 100 to 1000 nM.

`Cc1nc(C)c(-c2ccnc(N[C@@H](C)c3cc4cc(Cl)ccc4[nH]c3=O)n2)s1` [Compound I-78]: the IC50 lay in the range of 1000 to 10000 nM.

Turning to `CC(C)CC(c1ccnc(N[C@@H](C)c2cc3cc(Cl)ccc3[nH]c2=O)n1)S(C)(=O)=O` (some centres unmarked) [Compound I-118], the IC50 fell in the range of 100 to 1000 nM.

`C[C@H](Nc1nccc(SCc2ccccc2)n1)c1cc2cc(Cl)ccc2[nH]c1=O` [Compound I-110]: the IC50 lay in the range of 1000 to 10000 nM.

On to `C[C@H](Nc1nccc(-c2cncnc2)n1)c1cc2cc(Cl)ccc2[nH]c1=O` [Compound I-62, (S)-3-(1-(4,5′-bipyrimidin-2-ylamino)ethyl)-6-chloroquinolin-2(1H)-one], for which the IC50 lay in the range of 1000 to 10000 nM.

Turning to `CC(C)CC(=O)Nc1ccnc(N[C@@H](C)c2cc3cc(Cl)ccc3[nH]c2=O)n1` [Compound I-31], the IC50 fell in the range of 100 to 1000 nM.

For the molecule `CC(C)CS(=O)(=O)Nc1ccnc(N[C@@H](C)c2cc3cc(Cl)ccc3[nH]c2=O)n1` [Compound I-18], the IC50 fell in the range of 1000 to 10000 nM.

With `O=C1CCCN1c1ccnc(NCc2cc3cc(Cl)ccc3[nH]c2=O)n1` [Compound I-50], the IC50 lay within 100 to 1000 nM.

Turning to `C[C@H](Nc1nccc(CC(N)=O)n1)c1cc2cc(Cl)ccc2[nH]c1=O` [Compound I-130, (S)-2-(2-((1-(6-chloro-2-oxo-1,2-dihydroquinolin-3-yl)ethyl)amino)pyrimidin-4-yl) acetamide], the IC50 fell in the range of 100 to 1000 nM.

Regarding `C[C@H](Nc1nccc(-n2cccc2)n1)c1cc2cc(Cl)ccc2[nH]c1=O` [Compound I-52], the IC50 fell in the range of 100 to 1000 nM.

Consider `C[C@H](Nc1nccc(NC(=O)N(C)C)n1)c1cc2cc(Cl)ccc2[nH]c1=O` [Compound I-126, (S)-3-(2-((1-(6-chloro-2-oxo-1,2-dihydroquinolin-3-yl)ethyl)amino)pyrimidin-4-yl)-1,1-dimethylurea], for which the IC50 was greater than 10000 nM.

As for `COCC(=O)Nc1ccnc(N[C@@H](C)c2cc3cc(Cl)ccc3[nH]c2=O)n1` [Compound I-32, (S)—N-(2-((1-(6-Chloro-2-oxo-1,2-dihydroquinolin-3-yl)ethyl)amino)pyrimidin-4-yl)-2-methoxyacetamide], the IC50 is less than 100 nM.

As to `CNC(=O)Cc1ccnc(N[C@@H](C)c2cc3cc(Cl)ccc3[nH]c2=O)n1` [Compound I-131], the IC50 was 100 to 1000 nM.

As for `C[C@H](Nc1nccc(-c2ccnn2C)n1)c1cc2cc(Cl)ccc2[nH]c1=O` [Compound I-67, (S)-6-Chloro-3-(1-((4-(1-methyl-1H-pyrazol-5-yl)pyrimidin-2-yl)amino)ethyl)quinolin-2(1H)-one], the IC50 was 100 to 1000 nM.

Consider `C[C@H](Nc1nccc(-c2cnoc2)n1)c1cc2cc(Cl)ccc2[nH]c1=O` [Compound I-70], for which the IC50 lay within 1000 to 10000 nM.

As to `C[C@H](Nc1nccc(C2CCCS2(=O)=O)n1)c1cc2cc(Cl)ccc2[nH]c1=O` (some centres unmarked) [Compound I-120], the IC50 was in the range of 100 to 1000 nM.

As to `CC(C)CN(c1ccnc(N[C@@H](C)c2cc3cc(Cl)ccc3[nH]c2=O)n1)c1ncco1` [Compound I-128], the IC50 lay in the range of 100 to 1000 nM.

Consider `C[C@H](Nc1nccc(N(CC(C)(C)O)S(C)(=O)=O)n1)c1cc2cc(Cl)ccc2[nH]c1=O` [Compound I-19], for which the IC50 is 1000 to 10000 nM.

Turning to `CC(=O)Nc1ccccc1-c1ccnc(N[C@@H](C)c2cc3cc(Cl)ccc3[nH]c2=O)n1` [Compound I-73], the IC50 lay in the range of 1000 to 10000 nM.

Regarding `CC(C)N(c1ccnc(NCc2cc3ccccc3[nH]c2=O)n1)S(C)(=O)=O` [Compound I-164, N-isopropyl-N-(2-(((2-oxo-1,2-dihydroquinolin-3-yl)methyl)amino)pyrimidin-4-yl)methanesulfonamide], the IC50 is greater than 10000 nM.

Regarding `CC(C)CC(=O)N(c1ccnc(N[C@@H](C)c2cc3cc(Cl)ccc3[nH]c2=O)n1)C1CC1` [Compound I-24, (S)—N-(2-((1-(6-Chloro-2-oxo-1,2-dihydroquinolin-3-yl)ethyl)amino)pyrimidin-4-yl)-N-cyclopropyl-3-methylbutanamide], the 50% inhibitory concentration (IC50) fell in the range of 100 to 1000 nM.

`CC(C)C[S@+]([O-])c1ccnc(N[C@@H](C)c2cc3cc(Cl)ccc3[nH]c2=O)n1` [Compound I-109]: the IC50 was less than 100 nM.

Regarding `CC(Nc1nccc(N2CCOC2=O)n1)c1cc2ccccc2[nH]c1=O` (centres unmarked) [Compound I-49], the IC50 lay in the range of 100 to 1000 nM.

Take `CC(=O)N(c1ccnc(N[C@@H](C)c2cc3cc(Cl)ccc3[nH]c2=O)n1)C(C)(C)C` [Compound I-30]: the IC50 lay in the range of 1000 to 10000 nM.

As to `COc1cc2[nH]c(=O)c([C@@H](C)Nc3nccc(N4CCOC4=O)n3)cc2cc1Cl` [Compound I-148], the IC50 is greater than 10000 nM.

Regarding `Cc1nccn1-c1ccnc(N[C@@H](C)c2cc3cc(Cl)ccc3[nH]c2=O)n1` [Compound I-56], the IC50 is 1000 to 10000 nM.

In the case of `C[C@H](Nc1nccc(N)n1)c1cc2cc(Cl)ccc2[nH]c1=O` [Compound I-139], the IC50 is 1000 to 10000 nM.

Consider `Cc1cc(-c2ccnc(N[C@@H](C)c3cc4cc(Cl)ccc4[nH]c3=O)n2)n(C)n1` [Compound I-76], for which the IC50 was in the range of 1000 to 10000 nM.

For `C[C@@H](Nc1nccc(N2CCCOC2=O)n1)c1cc2cc(Cl)ccc2[nH]c1=O` [Compound I-140], the IC50 was greater than 10000 nM.

On to `CC(C)N(c1ccnc(NCc2cc3ccc(F)cc3[nH]c2=O)n1)S(C)(=O)=O` [Compound I-165], for which the IC50 fell in the range of 1000 to 10000 nM.

For `C[C@H](Nc1nccc(NC2CCOC2)n1)c1cc2cc(Cl)ccc2[nH]c1=O` (stereo partly drawn) [Compound I-122, 6-Chloro-3-((1S)-1-((4-((tetrahydrofuran-3-yl)amino)pyrimidin-2-yl)amino)ethyl) quinolin-2(1H)-one], the IC50 is 1000 to 10000 nM.

Turning to `CC(=O)N(Cc1ccnc(N[C@@H](C)c2cc3cc(Cl)ccc3[nH]c2=O)n1)C1CC1` [Compound I-137, (S)—N-((2-((1-(6-chloro-2-oxo-1,2-dihydroquinolin-3-yl)ethyl)amino)pyrimidin-4-yl)methyl)-N-cyclopropylacetamide], the IC50 was 1000 to 10000 nM.
